Data as given in patent US8288363B2, “Medicaments for anti-herpes virus treatments” (ASE & BIO, priority 2006, dated 2012).

Key:
Format in all cases: cell-based, herpes simplex virus
[1] = test system: HSV-1, HSV-1R, HSV-2 and HSV-2R; assay: Virucidal action: viral suspensions treated before infection of vero cells
Procedure: To determine whether PS3 has a virucidal effect, the procedure was as follows.
Vero cells were seeded at a cell density of 3·10^4 cells/well of a microtitre plate in 100 μl of MEM medium containing 8% FCS for 24 hours before the test.
On the day of the test, 50 μl of each of the viral suspensions identified above were treated with 50 μl of PS3 or reference product (acyclovir) having a given concentration for one hour at 37° C.
An amount of 100 μl of the mixture of this viral suspension, to which PS3 or the reference product had been added, was introduced into each well of the microtitre plate. The plate was kept at 4° C. for one hour.
It is to be noted that controls of the growth of the cells and of the viruses were run simultaneously.
The plates containing the infected cells were then placed in an oven at 37° C. for 48 or 72 hours.
The virucidal effect of PS3 was evaluated by measurement of the EC50 values determined in accordance with the method described in Example 3.

[2] = test system: HSV-1, HSV-1R, HSV-2 and HSV-2R; assay: Action on the viral adsorption, conclusion for the strains together
Procedure: To determine whether PS3 has an effect on the viral adsorption, the procedure was as follows.
Vero cells were seeded at a cell density of 3.5·10^4 cells/well of a 96-well microtitre plate in 100 μl of MEM medium containing 8% FCS 24 hours before the test. The viral suspensions of HSV-1, HSV-1R, HSV-2 and HSV-2R, defined by an MOI of 0.01 ID50/cell for a cell concentration of 350,000 cells/ml, were tested.
On the day of the test, the cells were subjected to three different treatments designated A, B and C.
According to treatment A, cells treated with 50 μl of PS3 or comparison product (acyclovir) of a given concentration were infected with 50 μl of one of the viral suspensions identified above for one hour at 4° C.
The infected cells were then washed with 100 μl of saline buffer in order to remove the PS3 or the reference product as well as the viral particles which had not been adsorbed by the cells.
After having filled each well with sufficient MEM medium containing 8% FCS to arrive at a volume of 200 μl, the cells were then placed in an oven at 37° C. for 72 hours. […]
For these 3 treatments, the inhibitory effect of PS3 and of the reference product (expressed in EC50) on the adsorption of the four abovementioned viral strains after 72 hours was evaluated by measurement of the EC50 values in accordance with the method described in Example 3.

[3] = test system: HSV-1, HSV-1R, HSV-2 and HSV-2R; assay: Action on the viral infection: vero cells pretreated before infection
Procedure: The abovementioned viral suspensions of HSV-1, HSV-1R, HSV-2 and HSV-2R, defined by an MOI of 0.01 ID50/cell for a cell concentration of 350,000 cells/ml, were tested.
Acyclovir and dextran sulphate used at concentrations comprised between 0.05 and 5 μg/ml were used as reference products in this series of experiments. PS3 concentrations of 0.125 to 1,250 μg/ml were used, and the experiments were carried out in 96-well microtitre plates.
To verify whether PS3 protects a cell culture when it is used before its infection by the abovementioned viral strains, the procedure was as follows.
Vero cells were seeded at a cell density of […] in 100 μl of MEM medium containing 8% FCS.
A solution of 50 μl of PS3 or the comparison product, that is to say acyclovir having a given concentration, was then added to each well filled with 50 μl of MEM medium with 8% FCS.
The microtitre plate containing the cells treated with PS3 or the reference product was than placed in an oven at 37° C. for 6, 12 or 24 hours. The cells were then washed with 100 μl of MEM medium in order to remove the PS3 or the reference product.
A volume of 50 μl of a viral suspension was then added to each well, as well as 50 μl of MEM medium with 8% FCS; and the plates were kept at 4° C. for 1 hour.
The infected cells were then placed in an oven at 37° C. for 48 or 72 hours.

[4] = non-resistant strains HSV-1 and HSV-2
[5] = strains HSV-1, HSV-2, HSV-1R, HSV-2R, cells pretreated 6, 12 or 24 hours, washed, then infected

Compound | Virucidal effect [1, 4] | Effect on adsorption [2, 4] | Effect before infection [3, 4] | Effect before infection [3, 5] | Virucidal effect ([1]; strains HSV-1, HSV-2, HSV-1R, HSV-2R, viral suspension treated one hour at 37° C.) | Effect on adsorption ([2]; strains HSV-1, HSV-2, HSV-1R, HSV-2R)
Nc1nc2c(ncn2COCCO)c(=O)[nH]1 [Acyclovir, acyclovir, reference compound] | no | no | no | not protected | – | –
sulphated laminarin [PS3] | – | – | – | not protected and no | no virucidal effect and no | inhibitory effect on the 4 viral strains solely during treatment C and yes
